{"source": "patent US20030224503A1", "about": "“In-situ microorganism generation for treating subsurface DNAPL source zones” (priority 2002, published 2003)", "tested_on": "groundwater microorganisms", "conditions": "both DNAPL test sites (MW-12R, RW-1)", "text": "The test sites are located at a property where fractured bedrock has been contaminated with PCE and TCE DNAPL to a depth of approximately 120 feet below ground surface."}
{"smiles": "CC(=O)O", "note": "[acetic acid]", "values": [{"measurement": "adaptation of groundwater microorganisms", "setting": "after injection of acetic acid, FIG. 4", "value": "increased"}, {"measurement": "change in biomass of groundwater microorganisms", "setting": "fractured bedrock, after vs before injection of acetic acid, FIG. 3", "value": "increased"}]}
